Experiment [1] deals with PI 3-kinase immunoprecipitated from human platelets. Kind of experiment: In vitro PI 3-kinase assay (32P incorporation into PI). It is filed as biochemical. The note with it: PI 3-kinase from human platelets, PI substrate. As to the method: The effect of TGX-25, TGX-33, TGX-37, TGX-40, TGX-41, TGX-57, TGX-84, TGX-90, TGX-93, TGX-98, TGX-99, TGX-101, TGX-106, TGX-107, TGX-108, TGX-109, TGX-111, TGX-112, TGX-113, TGX-115, TGX-120, TGX-121, TGX-123, TGX-124, TGX-126, TGX-127, TGX-130 or TGX-131on PI 3-kinase activity was determined using an in vitro PI 3-kinase assay. This assay was performed using PI 3-kinase immunoprecipitated from human platelets as the enzyme and PI as the substrate. The PI 3-kinase activity was quantitated by measuring the enzymatic incorporation of [^32P] into PI, forming PI([^32P]-3)P, as previously described (Susa et al., 1992, The Journal of Biological Chemistry 267(32):22951-22956.
Washed human platelets were lysed in Triton X-100 lysis buffer (10 mM Tris, pH 7.4, 1% Triton X-100, 2 mM EDTA, 1 mM PMSF) for 30 minutes. The Triton X-100 insoluble fraction was removed by centrifugation of the cell lysates at 15,000 g for 10 minutes. PI 3-kinase was immunoprecipitated by mixing 500 μg of the cell lysate with 1 μg of a rabbit anti-rat antibody against the p85/110 form of PI 3-kinase and 30 μl of 50% Protein A-sepharose beads for 2 hours at 4° C. The Protein A-sepharose-bound PI 3-kinase was isolated by pelleting the beads at 15,000 g for 5 seconds, and washing three times with ice-old Triton X-100 lysis buffer followed by four washes with PI 3-kinase assay buffer (20 mM HEPES, pH 7.4, 1 mM EGTA, 5 mM MgCl2).
PI stored in CHCl3 was dried under N2, resuspended in the lipid buffer (50 mM HEPES, pH 7.2, 1 mM EDTA) at a final concentration of 330 μg/ml, and sonicated for 6 minutes on ice. PI([^32P]-3)P was generated by mixing the immunoprecipitated PI 3-kinase for 20 minutes with 40 μl of the PI, 10 μl of ATP (1 mM) and ^32P-r-ATP (0.5 μCi, 1 μCi/nmol), 10 μl of 10× kinase buffer, in a final assay volume of 100 μl adjusted with H2O. TGX-25, TGX-33, TGX-37, TGX-40, TGX-41, TGX-57, TGX-84, TGX-90, TGX-93, TGX-98, TGX-99, TGX-101, TGX-106, TGX-107, TGX-108, TGX-109, TGX-111, TGX-112, TGX-113, TGX-115, TGX-120, TGX-121, TGX-123, TGX-124, TGX-126, TGX-127, TGX-130 or TGX-131 was preincubated with the PI 3-kinase for 5 minutes prior to the addition of ATP. The assay was terminated with 100 μl of 1 N HCl, and the PI([^32P]-3)P product extracted with 200 μl chloroform:methanol (1:1) and 500 μl 2 M KCl. The PI([^32P]-3)P in the chloroform phase was resolved by thin layer chromatography using a solvent system containing CHCl3:MeOH:HAC:H2O (43:38:5:7) (v:v:v:v), and visualized by autoradiography. The PI([^32P]-3)P spots were then scraped off from the TLC plates, deacylated with 1 ml methylamine:butanol:methanol (42:9:47) (v:v:v) for 4 hours at 53° C., and quantitated using a liquid scintillation counter (LKB 1209 RackBETA).

Experiment [2] relates to platelets. The experiment can be described thus: Flow-based reconstitution assay: platelet adhesion to vWf-coated glass microslides. The class given is cell-based. The settings on record: 30 min pretreatment, shear rate 1800 s^−1. The protocol:
The effect of TGX-40 on platelet adhesion was examined using a flow-based adhesion assay. Washed platelets were pretreated with 10, 25, or 50 μM TGX-40, or control buffer (0.1% DMSO) for 30 minutes at 37° C. prior to reconstitution with red blood cells to a hematocrit of 50%. The platelets and reconstituted red blood cells were perfused through vWf-coated glass microslides for 1 minute at a shear rate of 1800 s^−1. Non-adherent cells were removed by washing for 10 minutes at 1800 s^−1 and the number of adherent platelet were quantitated and expressed as the mean±SEM. As illustrated graphically in FIG. 1, TGX40 inhibited the ability of platelets to adhere in a dose-dependent manner, showing a decrease of 51, 67 and 86% in platelet adhesion when platelets were pretreated with 10, 25, and 50 μM TGX-40.

Experiment [3] deals with platelet thrombus formation. The experiment can be described thus: Whole-blood flow assay: platelet thrombus formation on vWf matrix (platelet LDH). It is filed as cell-based. The settings on record: shear rate 1800 s^−1. The protocol: The inhibitory effect of TGX-40 on platelet thrombus formation was examined using a whole-blood flow assay, since thrombi formed by washed platelets are small and poorly reproducible. Anticoagulated whole blood was incubated with 50, 100, or 200 μM TGX-40, or control buffer (0.1% DMSO) for 30 minutes with gentle rocking prior to perfusion through vWf-coated glass microslides for 2 minutes at a shear rate of 1800 s^−1. Non-adherent platelets were removed by washing for 10 minutes at 1800 s^−1, and adherent erythrocytes were lysed with 1% ammonium oxalate. The level of thrombus formation was quantitated indirectly by measuring platelet LDH (U/L) levels in the whole cell lysates by spectrophotometry. Following a 2-minute perfusion of whole blood, platelet-rich thrombi were observed over the surface of the microslide. […] As illustrated graphically in FIG. 2, pretreatment of whole blood with 50, 100, and 200 μM TGX-40 led to a decrease of 25, 53, and 80% in thrombus formation relative to control.

In experiment [4] the test system is rats producing regular cyclic flow reductions (CFRs). Kind of experiment: Animal model of internal carotid artery occlusion (Folts model, cyclic flow reductions). The class given is in vivo. The settings on record: rat. The text has this: The inhibitory effect of TGX-40 was examined in the well established animal model of arterial thrombosis of Folts et al., 1982, Circulation 65:248-255. This model is used to investigate the effects of antithrombotic drugs on clotting time in vivo in response to a crush injury followed by arterial stenosis.
The carotid artery of an anesthetized rat is dissected out, and an electromagnetic flow probe is placed around the artery to measure blood flow. Proximal to the flow probe, the artery is clamped with surgical forceps covered with silicone tubing to cause intimal and medial damage to the vessel wall. A ligature, or plastic cylinder of appropriate inside diameter is laced around the artery to produce a 70% reduction in arterial diameter.
Platelets aggregate in the area of the stenosed and damaged arterial vessel, gradually forming an occlusive platelet thrombus, seen as a decrease in blood flow. As the thrombus forms, blood pressure increases, causing the thrombus to fragment and embolize distal to the stenosed site. […] This causes a sudden restoration of blood flow. Platelets again aggregate in the area of the stenosed and damaged arterial vessel, repeating the thrombus-embolization pattern. […]
TGX-40 was administered at doses of 1.6 mg/kg and 3.2 mg/kg via the jugular vein and the stabilization of blood flow was recorded.

Experiment [5] has as its system K562 (leukaemia derived) and U937 (moncytic) cell lines. Kind of experiment: Cell proliferation assay. The settings on record: 20 μM, 4 day incubation. It is filed as cell-based. As to the method: The anti-proliferative activity of the compounds of this invention from all three chemical classes was determined using K562 (leukaemia derived) and U937 (moncytic) cell lines. The cytotoxic activity of the compounds was monitored over four days by counting cell number and determining cell viability using a colourimetric assay metabolic activity.

For experiment [6], the target named is PI3K α/β isoforms. The experiment can be described thus: In vitro enzyme assay PI3K α/β. The class given is biochemical. The settings on record: immunoprecipitated from platelet lysate. The protocol: (§1) In vitro enzyme assays were conducted as a primary screen to determine drug candidate isoform affinity and specificity.
(§2) The α and β isoforms of the PI3K were immunoprecipitated from a platelet lysate using an antibody that recognised the p85 regulatory subunit common to both forms of the enzyme. The γ isoform was produced as a recombinant protein in the Thrombogenix laboratories. […] Standard phosphorylation assays using phosphatidylinositol and ^32P were used to measure the enzyme activity in the immunoprecipates in the presence or absence of an inhibitor. Enzyme activity was determined over a range of inhibitor concentrations to establish an IC50 value.

In experiment [7] the target is T1, PI3K γ (Homo sapiens, UniProt P48736).
T1 construct: made in house
Kind of experiment: In vitro enzyme assay PI3K γ (recombinant). The note with it: recombinant γ isoform. It is filed as biochemical. The protocol:
as §1, §2

Experiment [8] deals with T2, PI4K.
T2 construct: PI4K was isolated from platelets in a similar manner using a PI4K specific antibody
The experiment can be described thus: In vitro enzyme assay PI4K. The class given is biochemical. The note with it: PI4K isolated from platelets; read-out: IC50 against PI4K. The protocol:
In vitro enzyme assays were conducted as a primary screen to determine drug candidate isoform affinity and specificity. The affinity of two leading compounds of the quinolone series (TGX84 and TGX155) for a closely related enzyme family, PI4K, was also determined to maximise compound specificity and therefore minimise potential adverse biochemical events.
The α and β isoforms of the PI3K were immunoprecipitated from a platelet lysate using an antibody that recognised the p85 regulatory subunit common to both forms of the enzyme. The γ isoform was produced as a recombinant protein in the Thrombogenix laboratories. PI4K was isolated from platelets in a similar manner using a PI4K specific antibody. Standard phosphorylation assays using phosphatidylinositol and ^32P were used to measure the enzyme activity in the immunoprecipates in the presence or absence of an inhibitor. Enzyme activity was determined over a range of inhibitor concentrations to establish an IC50 value.

The target in experiment [9] is tyrosine kinase EGF (Homo sapiens, UniProt P00533). The experiment can be described thus: Enzyme screening assay: tyrosine kinase EGF. It is filed as biochemical. The text has this:
(§3) The two leading compounds of the quinolone series, TGX155 and TGX84 were screened for activity against seven enzymes related to PI3K in function or substrate specificity, viz: ATPase, PDE4, tyrosine kinases EGF and fyn, protein kinases A and C, and tyrosine phosphatase.

Experiment [10] addresses tyrosine kinase fyn (Homo sapiens, UniProt P06241). The experiment can be described thus: Enzyme screening assay: tyrosine kinase fyn. The class given is biochemical.
From the text: as §3

Experiment [11] relates to platelet thrombus formation. The experiment can be described thus: Platelet thrombus formation under flow, citrated whole blood, vWf-coated microcapillary tubes (LDH). The class given is cell-based. The note with it: 50, 100, 200 μM, 600 s^−1. The protocol: Citrated whole blood was pretreated with 50, 100 or 200 μM TGX-84, or control buffer (0.1% DMSO) for 10 minutes at 37° C. Blood was perfused through von Willebrand factor-(vWf) coated microcapillary tubes for 2 minutes at 600 s^−1. Non-adherent cells were removed by perfusion of buffer for 2 minutes at 600 s^−1 and any adherent erythrocytes lysed through treatment with 1% ammonium oxalate. Adherent platelets were then lysed through addition of 1% Triton X-100 and lactate dehydrogenase (LDH) levels (U/L) analysed by spectrophotometry.

The record followed here is patent publication US7405211B2, “Therapeutic morpholino-substituted compounds” (AstraZeneca AB, priority 2000, dated 2008).

Each structure is given as a SMILES string.

T1 sequence (P48736 whole entry, species assumed): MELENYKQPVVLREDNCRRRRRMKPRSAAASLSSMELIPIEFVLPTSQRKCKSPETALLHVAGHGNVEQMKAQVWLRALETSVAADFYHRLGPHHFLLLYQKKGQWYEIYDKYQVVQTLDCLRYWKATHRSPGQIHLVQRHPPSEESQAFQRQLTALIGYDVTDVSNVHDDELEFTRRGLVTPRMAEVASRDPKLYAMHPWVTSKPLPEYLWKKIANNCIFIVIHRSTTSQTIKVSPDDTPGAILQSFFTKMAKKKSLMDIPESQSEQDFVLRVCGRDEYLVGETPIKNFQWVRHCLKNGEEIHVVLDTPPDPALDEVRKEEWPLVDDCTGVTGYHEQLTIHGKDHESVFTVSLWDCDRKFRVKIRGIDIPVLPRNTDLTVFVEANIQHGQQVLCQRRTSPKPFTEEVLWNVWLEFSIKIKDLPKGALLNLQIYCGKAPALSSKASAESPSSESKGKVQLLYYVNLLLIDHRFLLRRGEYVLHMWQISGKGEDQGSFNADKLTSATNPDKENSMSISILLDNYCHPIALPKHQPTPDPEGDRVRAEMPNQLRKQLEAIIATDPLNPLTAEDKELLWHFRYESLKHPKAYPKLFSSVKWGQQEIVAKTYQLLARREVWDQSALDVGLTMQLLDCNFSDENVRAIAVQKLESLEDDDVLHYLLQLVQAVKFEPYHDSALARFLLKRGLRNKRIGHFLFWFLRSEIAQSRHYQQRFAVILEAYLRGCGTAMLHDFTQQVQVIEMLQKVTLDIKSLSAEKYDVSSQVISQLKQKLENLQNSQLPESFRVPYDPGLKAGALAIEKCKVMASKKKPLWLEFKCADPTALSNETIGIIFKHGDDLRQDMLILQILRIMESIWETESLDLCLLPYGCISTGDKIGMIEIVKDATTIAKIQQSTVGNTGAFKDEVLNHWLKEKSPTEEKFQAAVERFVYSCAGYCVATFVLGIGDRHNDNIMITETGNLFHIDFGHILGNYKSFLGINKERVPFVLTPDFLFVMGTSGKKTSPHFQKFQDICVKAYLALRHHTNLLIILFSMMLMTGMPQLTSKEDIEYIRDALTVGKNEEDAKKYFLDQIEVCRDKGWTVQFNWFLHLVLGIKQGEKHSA
Sequence of tyrosine kinase fyn (P06241 whole entry): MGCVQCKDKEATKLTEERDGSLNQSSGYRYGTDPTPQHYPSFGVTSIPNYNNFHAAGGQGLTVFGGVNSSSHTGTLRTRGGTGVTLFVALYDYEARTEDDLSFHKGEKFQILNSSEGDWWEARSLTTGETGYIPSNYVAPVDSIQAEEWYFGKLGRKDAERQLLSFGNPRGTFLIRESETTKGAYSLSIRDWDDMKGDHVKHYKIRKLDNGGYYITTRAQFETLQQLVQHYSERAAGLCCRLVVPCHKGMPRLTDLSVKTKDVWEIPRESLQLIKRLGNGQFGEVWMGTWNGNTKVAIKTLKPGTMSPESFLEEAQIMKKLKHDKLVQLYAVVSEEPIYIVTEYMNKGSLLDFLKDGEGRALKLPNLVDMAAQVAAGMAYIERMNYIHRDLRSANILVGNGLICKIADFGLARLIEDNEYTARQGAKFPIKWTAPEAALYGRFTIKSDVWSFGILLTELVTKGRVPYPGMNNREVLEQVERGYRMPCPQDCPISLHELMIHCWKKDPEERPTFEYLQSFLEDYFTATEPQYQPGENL
Sequence of tyrosine kinase EGF (P00533 25-1210): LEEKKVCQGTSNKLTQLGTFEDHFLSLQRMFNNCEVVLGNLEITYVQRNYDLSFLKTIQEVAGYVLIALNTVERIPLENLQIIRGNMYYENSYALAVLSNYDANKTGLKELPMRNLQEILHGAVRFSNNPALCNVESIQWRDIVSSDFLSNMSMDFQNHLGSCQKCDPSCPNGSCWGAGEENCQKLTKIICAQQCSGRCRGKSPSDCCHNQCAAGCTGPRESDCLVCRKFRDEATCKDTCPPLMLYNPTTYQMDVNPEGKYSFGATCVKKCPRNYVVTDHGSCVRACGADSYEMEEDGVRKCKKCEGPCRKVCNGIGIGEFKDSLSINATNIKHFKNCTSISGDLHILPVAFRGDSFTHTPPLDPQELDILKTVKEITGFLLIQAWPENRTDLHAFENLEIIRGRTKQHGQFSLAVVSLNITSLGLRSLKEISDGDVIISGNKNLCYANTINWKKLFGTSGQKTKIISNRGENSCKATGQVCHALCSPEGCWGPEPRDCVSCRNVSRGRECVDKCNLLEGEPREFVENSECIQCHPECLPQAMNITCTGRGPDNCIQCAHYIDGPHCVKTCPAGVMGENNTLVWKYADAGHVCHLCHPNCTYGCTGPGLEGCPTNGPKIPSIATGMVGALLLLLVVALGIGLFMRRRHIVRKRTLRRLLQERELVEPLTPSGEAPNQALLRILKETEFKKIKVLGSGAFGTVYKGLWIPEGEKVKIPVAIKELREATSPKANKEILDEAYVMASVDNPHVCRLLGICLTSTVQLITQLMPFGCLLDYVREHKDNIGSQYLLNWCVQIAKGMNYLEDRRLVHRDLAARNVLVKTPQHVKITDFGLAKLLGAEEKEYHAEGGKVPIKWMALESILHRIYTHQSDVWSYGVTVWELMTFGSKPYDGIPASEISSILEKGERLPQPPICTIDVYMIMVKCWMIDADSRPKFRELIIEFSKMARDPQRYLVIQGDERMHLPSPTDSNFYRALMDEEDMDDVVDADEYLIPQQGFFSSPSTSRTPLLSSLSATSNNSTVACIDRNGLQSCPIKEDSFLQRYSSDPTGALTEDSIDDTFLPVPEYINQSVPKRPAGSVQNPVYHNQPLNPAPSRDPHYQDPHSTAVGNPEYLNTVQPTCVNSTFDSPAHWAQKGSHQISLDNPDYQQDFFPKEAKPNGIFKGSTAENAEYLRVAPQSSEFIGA

In general, IC50 refers to the concentration that inhibits the measured activity by half. The compound `O=c1cc(N2CCOCC2)nc2c(Cc3ccccc3)cccn12` [TGX-40] registered an IC50 in experiment [1] of about 1.5 µM. Also, the “decrease in platelet adhesion” value in experiment [2] (10 μM) came to 51%; in [2] (25 μM), 67%; in [2] (50 μM), 86%. In addition, the “decrease in thrombus formation relative to control” value in [3] (50 μM) was 25%; in experiment [3] (100 μM), 53%; in [3] (200 μM), 80%. Moreover, the “treated animals returned to baseline within 10 minutes” value in experiment [4] (1.6 mg/kg via the jugular vein) and in [4] (3.2 mg/kg via the jugular vein) was 90% each time. The “% Cells remaining” value in experiment [5] worked out at 75%.

Turning to `Cc1cc(F)ccc1Oc1cccc2c(=O)cc(N3CCOCC3)[nH]c12` [TGX-155, 8-(4′-Fluoro-2′-methylphenoxy)-2-morpholino-4-quinolone], the IC50 was 0.02 µM in experiment [1]; 0.02 µM in experiment [6]; 5 µM in experiment [7]; 100 µM in [8]; over 100 µM in experiment [9]; over 100 µM in [10].

Take `O=c1cc(N2CCOCC2)[nH]c2c(Oc3ccccc3)cccc12` [TGX-84, 2-Morpholino-8-phenoxy-4-quinolone]: the IC50 in [1] was 0.1 µM; in experiment [6] it was 0.1 µM; in experiment [7], 5 µM; in experiment [8] it was 100 µM; in experiment [9], over 100 µM; in experiment [10], over 100 µM. Also, the “thrombosis formation relative to control” value in experiment [11] is on record as “decrease in thrombosis formation relative to control”.
